Consider two compounds from patent US20050123593A1, “Liposomal encapsulation of glycosaminoglycans for the treatment of arthritic joints” (priority 2001, published 2005).

The test system of one series is osteoarthritic pain. The settings on record: intra-articular injection; cited from earlier work.
Series [1] is described as follows: Freeze fracture microscopy (FF-TEM) of the compositions. It is filed as physicochemical. To be noted: freeze-fracture transmission electron microscope. Here is the method:
The compositions were subsequently examined using a freeze-fracture transmission electron microscope (FF-TEM). FF-TEM samples of each formulation were prepared in accordance with techniques described in chapter 5 of “Low Temperature Microscopy and Analysis” by Patrick Echlin (1992). The sample was mounted between thin metal sheets and rapidly cooled with liquid propane to −196° C. The sample was then transferred under liquid nitrogen to a pre-cooled cold stage of a Balzers BAF-301 high vacuum freeze-etch unit (Techno Trade International, Lichtenstein). The sample was fractured at low temperature and etched at −150° C. to remove a surface layer of water. The fracture faces were shadowed at an angle of 45° with platinum to create selective electron contrast. A thin layer of carbon was deposited over the entire fracture surface to create a continuous replica. The replicas were then examined using a JEOL 100CX2 electron microscope (Japanese Electronic Optical Laboratories, Japan).

For series [2] the following is noted: in vivo; cited from earlier work.

Regarding `CCCCCCCCCCCCCCCC(=O)OC[C@H](COP(=O)([O-])OCC[N+](C)(C)C)OC(=O)CCCCCCCCCCCCCCC` [DPPC, 1,2-dipalmitoyl-sn-glycero-3-phosphocholine], the pain relief entry in the series with osteoarthritic pain is given as “reduce osteoarthritic pain”.
In the case of Hyaluronic acid, the “Structures seen by FF-TEM” value in series [1] is given as “presence of string like structures”. Besides, the “overall turnover rate t1/2” value in series [2] is on record as 0.5 to a few.
